The numbers were not newly measured in US20230265432A1, “METHODS AND COMPOSITIONS FOR TREATING ACUTE MYELOID LEUKEMIA” (Sanford Burnham Prebys Medical Discovery Institute, priority 2021, published 2023), which cites them from elsewhere.

As usually defined, the IC50 is the point on the concentration scale where inhibition reaches its midpoint. For orientation: GI50 means the concentration giving 50% growth inhibition. As usually defined, the EC50 is the concentration at which the effect is half-maximal. In general, Ki refers to the equilibrium dissociation constant of an inhibitor or competing ligand from its target. The Kd is the constant that tells how readily two partners part at equilibrium.

In one data set the target is SIRT2 (Homo sapiens, UniProt Q8IXJ6). The settings on record: cited from earlier work.
Another data set addresses SIRT3 (Homo sapiens, UniProt Q9NTG7). The settings on record: cited from earlier work.
The target in data set [1] is T1, HIV-1 reverse transcriptase (Human immunodeficiency virus type 1 group M subtype B, UniProt P04585).
T1 construct: HIV-1 reverse transcriptase
The settings on record: cited from earlier work.

The next data set addresses yeast Hmt1p (Saccharomyces cerevisiae, UniProt P38074). The settings on record: cited from earlier work.
A further data set addresses SMYD2 (Homo sapiens, UniProt Q9NRG4). Conditions: cited from earlier work.
The subject of data set [2] is phosphorylation of histone 2A at Thr120 in DU-145 human prostate cancer cells. The settings on record: cited from earlier work.
A further data set relates to human dermal fibroblasts. The settings on record: cited from earlier work.
The target of another data set is HDAC4 (Homo sapiens, UniProt P56524). Conditions: cited from earlier work.
Another data set has as its system HCT116. Conditions: cited from earlier work.
In a further data set the target is T2, HDAC6 (Homo sapiens, UniProt Q9UBN7).
T2 sequence (Q9UBN7 1-1215): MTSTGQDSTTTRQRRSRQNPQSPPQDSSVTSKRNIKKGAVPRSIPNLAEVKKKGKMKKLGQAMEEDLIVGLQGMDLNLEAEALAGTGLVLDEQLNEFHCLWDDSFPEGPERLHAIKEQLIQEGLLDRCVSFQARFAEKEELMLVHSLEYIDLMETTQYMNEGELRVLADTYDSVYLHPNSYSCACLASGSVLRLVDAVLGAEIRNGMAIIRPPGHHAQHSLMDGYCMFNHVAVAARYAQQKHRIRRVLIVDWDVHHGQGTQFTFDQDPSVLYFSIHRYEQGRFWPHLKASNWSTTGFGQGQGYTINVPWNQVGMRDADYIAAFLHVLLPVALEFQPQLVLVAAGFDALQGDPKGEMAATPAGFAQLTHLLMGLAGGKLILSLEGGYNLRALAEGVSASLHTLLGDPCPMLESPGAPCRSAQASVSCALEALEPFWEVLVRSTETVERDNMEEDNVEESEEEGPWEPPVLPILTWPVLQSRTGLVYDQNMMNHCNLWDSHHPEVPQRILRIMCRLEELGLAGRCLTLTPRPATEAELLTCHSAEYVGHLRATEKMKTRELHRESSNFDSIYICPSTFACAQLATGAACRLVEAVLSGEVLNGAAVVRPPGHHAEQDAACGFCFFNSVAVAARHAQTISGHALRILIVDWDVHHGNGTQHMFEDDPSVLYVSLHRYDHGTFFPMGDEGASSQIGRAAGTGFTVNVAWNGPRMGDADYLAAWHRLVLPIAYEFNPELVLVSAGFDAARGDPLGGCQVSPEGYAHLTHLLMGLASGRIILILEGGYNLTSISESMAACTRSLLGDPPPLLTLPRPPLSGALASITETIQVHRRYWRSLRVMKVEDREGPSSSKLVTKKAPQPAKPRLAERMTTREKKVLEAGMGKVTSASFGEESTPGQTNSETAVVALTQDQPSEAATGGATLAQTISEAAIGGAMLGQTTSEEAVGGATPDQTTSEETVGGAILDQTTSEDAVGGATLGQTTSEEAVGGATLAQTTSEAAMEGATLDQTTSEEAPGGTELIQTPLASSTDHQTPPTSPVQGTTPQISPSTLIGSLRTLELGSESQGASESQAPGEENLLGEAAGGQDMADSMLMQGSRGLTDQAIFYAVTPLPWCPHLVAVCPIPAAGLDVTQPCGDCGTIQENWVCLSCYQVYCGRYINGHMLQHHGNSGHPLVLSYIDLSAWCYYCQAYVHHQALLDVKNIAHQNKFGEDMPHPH
The settings on record: cited from earlier work.

The next data set deals with HDAC2 (Homo sapiens, UniProt Q92769). Conditions: cited from earlier work.
The subject of another data set is HuT-78 cells. The settings on record: cited from earlier work.
The test system of another data set is neuroblastoma tumor. The settings on record: 200 mg/kg; cited from earlier work.
Data set [3] concerns RhoA/C-mediated, SRF-driven luciferase expression in PCS prostate cancer cells. Conditions: cited from earlier work.
The target in another data set is HDAC8 (Homo sapiens, UniProt Q9BY41). Conditions: cited from earlier work.
The test system of data set [4] is trimethylation of the PRC2 target H3K27. Conditions: cited from earlier work.
The next data set concerns the target EZH2 (Homo sapiens, UniProt Q15910). The settings on record: cited from earlier work.
For data set [5], the system named is trimethylation of H3K27 in HCC1806 cells. The settings on record: cited from earlier work.
Another data set deals with REV-ERBa (Homo sapiens, UniProt P20393). Conditions: agonist; cited from earlier work.
The target of a further data set is EZH1 (Homo sapiens, UniProt Q92800). Conditions: cited from earlier work.
Data set [6] concerns EZH2 mutant DLBCL cell lines. Conditions: proliferation; cited from earlier work.
The next data set deals with UTX (Homo sapiens, UniProt O15550). Conditions: as measured by mass spectrometry; cited from earlier work.
The subject of data set [7] is various cancer cell lines. The settings on record: proliferation; cited from earlier work.
A further data set deals with CBP (Homo sapiens, UniProt Q92793). Conditions: cited from earlier work.
Data set [8] has as its system metastatic breast cancer MDA-MB 231 cell. Conditions: cited from earlier work.
In another data set the target is T3, SIRT1 (Homo sapiens, UniProt Q96EB6).
T3 sequence (Q96EB6 1-747): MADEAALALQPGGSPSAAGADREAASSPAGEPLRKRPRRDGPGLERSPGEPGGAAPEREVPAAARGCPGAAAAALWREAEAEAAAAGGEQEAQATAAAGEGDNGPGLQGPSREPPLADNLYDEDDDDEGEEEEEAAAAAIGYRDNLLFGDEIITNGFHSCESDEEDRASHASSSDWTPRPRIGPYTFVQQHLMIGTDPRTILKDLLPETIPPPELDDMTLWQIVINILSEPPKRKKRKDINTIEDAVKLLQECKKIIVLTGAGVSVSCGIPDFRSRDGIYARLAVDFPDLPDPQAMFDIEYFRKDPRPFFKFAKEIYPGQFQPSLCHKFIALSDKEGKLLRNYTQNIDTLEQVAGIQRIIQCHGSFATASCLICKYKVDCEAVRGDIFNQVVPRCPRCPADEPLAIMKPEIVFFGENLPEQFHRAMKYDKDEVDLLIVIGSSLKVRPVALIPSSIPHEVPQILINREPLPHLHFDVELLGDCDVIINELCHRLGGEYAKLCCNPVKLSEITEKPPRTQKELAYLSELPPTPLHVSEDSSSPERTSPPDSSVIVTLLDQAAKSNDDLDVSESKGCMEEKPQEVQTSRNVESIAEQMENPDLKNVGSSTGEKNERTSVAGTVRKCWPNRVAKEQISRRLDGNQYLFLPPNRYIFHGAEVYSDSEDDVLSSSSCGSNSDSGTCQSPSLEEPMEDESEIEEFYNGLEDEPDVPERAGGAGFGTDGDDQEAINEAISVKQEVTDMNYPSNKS
The settings on record: cited from earlier work.

The target of a further data set is JMJD2A (Homo sapiens, UniProt O75164). The settings on record: cited from earlier work.
The next data set has as its target JMJD2B (Homo sapiens, UniProt O94953). Conditions: cited from earlier work.
Data set [9] relates to HDAC activity in HeLa cell nuclear lysates. Conditions: cited from earlier work.
The target of a further data set is SIRT5 (Homo sapiens, UniProt Q9NXA8). Conditions: cited from earlier work.
Data set [10] concerns the target G9a and GLP methyltransferases. Conditions: competitive with H3K9 substrates; cited from earlier work.
Data set [11] deals with H3K9 dimethylation in MDA-MB231 cells. The settings on record: cited from earlier work.
For data set [12], the system named is H3K9 dimethylation levels in PANC-1 cells. Conditions: cited from earlier work.
In another data set the target is GLP (Homo sapiens, UniProt Q9H9B1). The settings on record: cited from earlier work.
The subject of data set [13] is H3K27methylation in MCF10A cells. The settings on record: cited from earlier work.
The target in the next data set is WDR5 (Homo sapiens, UniProt P61964). Conditions: cited from earlier work.
The target in the next data set is MLL core complex (Homo sapiens, UniProt P61964). Conditions: in vitro; cited from earlier work.

Counter-ions that a name gives are not always drawn.

Chain of EZH2 (Q15910 whole entry, species assumed): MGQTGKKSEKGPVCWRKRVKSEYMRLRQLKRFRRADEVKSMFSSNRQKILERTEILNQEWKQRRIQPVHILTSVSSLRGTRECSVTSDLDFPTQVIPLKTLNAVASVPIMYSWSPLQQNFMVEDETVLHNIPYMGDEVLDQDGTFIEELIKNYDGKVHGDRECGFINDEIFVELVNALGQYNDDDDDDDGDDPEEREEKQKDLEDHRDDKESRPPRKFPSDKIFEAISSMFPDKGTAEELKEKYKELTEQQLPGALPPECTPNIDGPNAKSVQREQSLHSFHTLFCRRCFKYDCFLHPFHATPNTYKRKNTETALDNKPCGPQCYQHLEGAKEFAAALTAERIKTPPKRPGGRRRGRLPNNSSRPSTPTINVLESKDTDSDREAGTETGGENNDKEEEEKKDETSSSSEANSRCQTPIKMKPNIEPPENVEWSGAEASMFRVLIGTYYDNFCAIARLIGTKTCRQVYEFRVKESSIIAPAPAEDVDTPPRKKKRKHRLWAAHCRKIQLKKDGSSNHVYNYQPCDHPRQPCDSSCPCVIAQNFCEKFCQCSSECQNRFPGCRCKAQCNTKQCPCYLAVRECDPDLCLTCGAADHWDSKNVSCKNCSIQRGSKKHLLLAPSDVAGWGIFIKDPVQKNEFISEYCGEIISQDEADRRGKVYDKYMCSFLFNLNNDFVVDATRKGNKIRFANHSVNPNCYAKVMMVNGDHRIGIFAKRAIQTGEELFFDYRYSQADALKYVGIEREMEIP
Chain of EZH1 (Q92800 whole entry, species assumed): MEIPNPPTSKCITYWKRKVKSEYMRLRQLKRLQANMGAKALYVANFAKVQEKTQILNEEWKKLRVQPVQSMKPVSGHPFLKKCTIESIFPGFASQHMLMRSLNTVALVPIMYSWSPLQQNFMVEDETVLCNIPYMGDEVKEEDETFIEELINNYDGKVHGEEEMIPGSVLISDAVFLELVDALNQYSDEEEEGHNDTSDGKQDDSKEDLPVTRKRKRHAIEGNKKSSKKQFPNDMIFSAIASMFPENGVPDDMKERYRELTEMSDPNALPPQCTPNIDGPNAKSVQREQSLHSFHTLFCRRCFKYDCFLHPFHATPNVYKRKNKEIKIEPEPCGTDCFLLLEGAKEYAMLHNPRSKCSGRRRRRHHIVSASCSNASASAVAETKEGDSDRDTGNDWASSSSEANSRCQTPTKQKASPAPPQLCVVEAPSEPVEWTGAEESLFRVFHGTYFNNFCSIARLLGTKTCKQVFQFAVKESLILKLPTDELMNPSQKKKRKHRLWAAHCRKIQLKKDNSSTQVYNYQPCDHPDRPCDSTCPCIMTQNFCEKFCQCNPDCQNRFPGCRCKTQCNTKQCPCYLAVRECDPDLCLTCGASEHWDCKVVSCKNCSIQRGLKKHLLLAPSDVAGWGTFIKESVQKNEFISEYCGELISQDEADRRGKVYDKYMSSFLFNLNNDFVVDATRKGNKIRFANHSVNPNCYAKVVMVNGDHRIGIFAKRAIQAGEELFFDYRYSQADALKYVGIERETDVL
Chain of EZH1 (O75530 whole entry partner, species assumed): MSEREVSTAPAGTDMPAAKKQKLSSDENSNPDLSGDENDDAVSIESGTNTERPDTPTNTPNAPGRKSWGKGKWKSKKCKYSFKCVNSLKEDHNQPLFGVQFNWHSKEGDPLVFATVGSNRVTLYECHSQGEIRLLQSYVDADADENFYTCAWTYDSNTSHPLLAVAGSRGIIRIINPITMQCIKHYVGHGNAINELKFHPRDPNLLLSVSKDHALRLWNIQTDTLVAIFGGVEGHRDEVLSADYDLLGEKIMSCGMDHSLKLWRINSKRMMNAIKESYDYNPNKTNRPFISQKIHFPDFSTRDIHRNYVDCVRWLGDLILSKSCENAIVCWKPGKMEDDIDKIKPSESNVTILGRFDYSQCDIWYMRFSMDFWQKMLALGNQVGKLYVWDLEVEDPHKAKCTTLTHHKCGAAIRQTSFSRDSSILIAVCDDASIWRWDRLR
Chain of EZH1 (Q15022 whole entry partner, species assumed): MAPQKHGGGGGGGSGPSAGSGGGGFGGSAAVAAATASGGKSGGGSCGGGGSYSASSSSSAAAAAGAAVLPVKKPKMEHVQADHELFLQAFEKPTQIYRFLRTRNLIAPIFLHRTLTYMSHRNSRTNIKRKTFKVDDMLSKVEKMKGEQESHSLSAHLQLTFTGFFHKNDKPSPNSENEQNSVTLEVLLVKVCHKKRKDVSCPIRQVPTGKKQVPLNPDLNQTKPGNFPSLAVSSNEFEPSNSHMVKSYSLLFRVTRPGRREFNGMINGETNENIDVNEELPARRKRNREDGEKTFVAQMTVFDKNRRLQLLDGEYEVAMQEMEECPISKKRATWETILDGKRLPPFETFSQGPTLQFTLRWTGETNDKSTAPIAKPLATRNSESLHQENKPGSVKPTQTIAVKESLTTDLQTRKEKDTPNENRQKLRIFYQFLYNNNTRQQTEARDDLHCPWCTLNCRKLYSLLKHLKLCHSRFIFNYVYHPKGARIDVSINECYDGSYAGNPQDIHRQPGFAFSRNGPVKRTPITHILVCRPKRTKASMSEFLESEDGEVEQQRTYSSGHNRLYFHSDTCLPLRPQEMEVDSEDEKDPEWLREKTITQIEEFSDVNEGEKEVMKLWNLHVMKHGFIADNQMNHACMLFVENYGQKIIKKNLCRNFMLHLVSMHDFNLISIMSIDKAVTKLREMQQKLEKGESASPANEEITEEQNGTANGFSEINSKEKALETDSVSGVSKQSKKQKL
Chain of EZH1 (Q09028 whole entry partner, species assumed): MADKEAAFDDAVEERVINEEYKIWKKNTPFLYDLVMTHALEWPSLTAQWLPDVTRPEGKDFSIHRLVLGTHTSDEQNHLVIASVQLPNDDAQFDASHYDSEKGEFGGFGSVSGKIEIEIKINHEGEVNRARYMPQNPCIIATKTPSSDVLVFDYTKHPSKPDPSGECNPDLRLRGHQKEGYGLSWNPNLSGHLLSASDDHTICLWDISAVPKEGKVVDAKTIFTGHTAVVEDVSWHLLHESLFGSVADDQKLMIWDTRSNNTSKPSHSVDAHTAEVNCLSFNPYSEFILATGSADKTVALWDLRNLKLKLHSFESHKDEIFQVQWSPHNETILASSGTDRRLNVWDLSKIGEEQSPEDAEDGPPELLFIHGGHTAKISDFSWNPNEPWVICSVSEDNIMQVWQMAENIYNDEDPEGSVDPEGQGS
Chain of HDAC8 (Q9BY41 whole entry, species assumed): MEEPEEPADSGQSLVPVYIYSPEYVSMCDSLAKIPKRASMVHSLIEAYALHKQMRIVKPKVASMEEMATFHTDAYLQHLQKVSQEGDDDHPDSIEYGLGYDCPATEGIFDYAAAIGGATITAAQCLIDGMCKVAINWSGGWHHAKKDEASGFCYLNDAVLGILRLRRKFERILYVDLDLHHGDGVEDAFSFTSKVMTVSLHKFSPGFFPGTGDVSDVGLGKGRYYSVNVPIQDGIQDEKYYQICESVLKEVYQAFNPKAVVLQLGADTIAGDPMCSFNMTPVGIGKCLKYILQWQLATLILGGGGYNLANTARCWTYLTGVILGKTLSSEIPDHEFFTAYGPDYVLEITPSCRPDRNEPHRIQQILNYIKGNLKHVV
Chain of HDAC4 (P56524 whole entry, species assumed): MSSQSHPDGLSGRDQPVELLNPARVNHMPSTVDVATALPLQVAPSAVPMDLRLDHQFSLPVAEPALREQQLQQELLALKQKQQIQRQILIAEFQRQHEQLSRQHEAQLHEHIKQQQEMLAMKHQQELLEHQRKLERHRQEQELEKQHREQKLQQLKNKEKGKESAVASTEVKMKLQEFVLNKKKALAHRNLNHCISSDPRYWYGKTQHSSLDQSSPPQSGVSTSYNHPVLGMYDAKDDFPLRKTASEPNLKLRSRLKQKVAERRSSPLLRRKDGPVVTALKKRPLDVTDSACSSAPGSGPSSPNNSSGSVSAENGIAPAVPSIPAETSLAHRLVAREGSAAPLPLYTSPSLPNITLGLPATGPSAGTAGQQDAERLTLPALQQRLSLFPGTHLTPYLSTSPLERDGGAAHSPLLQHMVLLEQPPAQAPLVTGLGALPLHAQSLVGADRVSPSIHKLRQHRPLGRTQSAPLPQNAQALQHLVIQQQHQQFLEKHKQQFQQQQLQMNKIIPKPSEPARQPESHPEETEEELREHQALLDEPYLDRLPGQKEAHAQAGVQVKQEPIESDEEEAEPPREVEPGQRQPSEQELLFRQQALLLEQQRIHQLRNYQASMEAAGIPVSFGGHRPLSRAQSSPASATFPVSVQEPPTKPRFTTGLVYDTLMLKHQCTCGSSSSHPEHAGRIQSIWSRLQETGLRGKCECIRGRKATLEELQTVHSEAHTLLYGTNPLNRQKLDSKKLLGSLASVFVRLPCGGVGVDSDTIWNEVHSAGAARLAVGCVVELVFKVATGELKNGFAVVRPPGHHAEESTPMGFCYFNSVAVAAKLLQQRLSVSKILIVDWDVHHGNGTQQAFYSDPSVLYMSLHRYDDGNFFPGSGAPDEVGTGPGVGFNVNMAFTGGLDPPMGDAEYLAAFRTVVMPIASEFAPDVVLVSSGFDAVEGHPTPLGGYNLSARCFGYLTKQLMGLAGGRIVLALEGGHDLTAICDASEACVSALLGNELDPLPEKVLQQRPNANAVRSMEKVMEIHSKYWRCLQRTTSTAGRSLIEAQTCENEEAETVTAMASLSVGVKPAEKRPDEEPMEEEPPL
Chain of SMYD2 (Q9NRG4 whole entry, species assumed): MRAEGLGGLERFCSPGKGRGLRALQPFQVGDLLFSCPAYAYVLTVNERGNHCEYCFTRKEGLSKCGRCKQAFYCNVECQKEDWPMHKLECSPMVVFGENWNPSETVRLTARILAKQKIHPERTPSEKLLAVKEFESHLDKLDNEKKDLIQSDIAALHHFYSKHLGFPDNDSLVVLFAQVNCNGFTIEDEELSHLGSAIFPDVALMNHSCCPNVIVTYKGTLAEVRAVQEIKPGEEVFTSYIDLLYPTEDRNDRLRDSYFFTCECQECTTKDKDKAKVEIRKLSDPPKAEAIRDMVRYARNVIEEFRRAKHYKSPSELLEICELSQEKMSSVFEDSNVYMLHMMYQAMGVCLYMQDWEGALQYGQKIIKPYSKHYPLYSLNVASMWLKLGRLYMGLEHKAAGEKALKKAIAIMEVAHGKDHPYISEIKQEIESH

Take `N#C/C(=C\c1ccc(-c2cc(Cl)ccc2Cl)o1)C(=O)Nc1cccc2cccnc12` [AGK7]: the IC50 at SIRT2 was over 50 µM; at SIRT3, over 5 µM. Turning to `O=C(Nc1ccc2c(O)cc(S(=O)(=O)O)cc2c1)Nc1ccc2c(O)cc(S(=O)(=O)O)cc2c1` [AMI-1 (sodium salt)], the IC50 in [1] was 5 µM; at yeast Hmt1p, 3 µM. On to `O=C1COc2c(CCNCCN(C(=O)CCNCCc3ccc(Cl)c(Cl)c3)C3CCCCC3)ccc(O)c2N1` [AZ 505], for which, at SMYD2, the IC50 was 0.12 µM.

On to `C(=N\Nc1ncnc2sc3c(c12)CCCC3)/c1c[nH]c2ccccc12` [B32B3], for which, in [2], the IC50 was 0.5 µM. Take `CCOC(=O)NCCCC(=O)NCCc1ccccc1` [CAY10683]: the GI50 in the data set on human dermal fibroblasts is over 100 µM; in the data set on HCT116, 29.4 µM; in the data set with HuT-78 cells, 1.4 µM. The IC50 at HDAC4 is over 1 µM; on HDAC6 it was 0.434 µM; at HDAC2 it was 0.000119 µM. Regarding `O=C(/C=C/c1cccc(C(=O)NO)c1)NO` [CBHA], the neuroblastoma tumor growth result in the data set on neuroblastoma tumor is on record as “completely suppresses neuroblastoma tumor growth in SCID”. `O=C(Nc1ccc(Cl)cc1)C1CCCN(C(=O)c2cc(C(F)(F)F)cc(C(F)(F)F)c2)C1` (stereo not shown) [CCG-100602]: the IC50 in data set [3] was 9.8 µM.

As to `Cc1cc(Cl)ccc1OCCCC(=O)NO` [Droxinostat], the IC50 on HDAC8 is 1.46 µM.

With `Cc1cc(C)c(CNC(=O)c2cc(-c3ccc(CN4CCOCC4)cc3)cc3c2cnn3C2CCCC2)c(=O)[nH]1` [EPZ005687], in [4], the IC50 was 0.08 µM. As to `CCCc1cc(C)[nH]c(=O)c1CNC(=O)c1cc(-c2ccnc(N3CCN(C)CC3)c2)cc2c1cnn2C(C)C` [GSK343], the concentration for half-maximal inhibition (IC50) at EZH2 was 0.004 µM; in data set [5] it was 0.174 µM. In the case of `CC(C)(C)OC(=O)CN(Cc1ccc(Cl)cc1)Cc1ccc([N+](=O)[O-])s1` [GSK4112], the EC50 at REV-ERBa is 0.4 µM. As for `CC[C@H](C)n1cc(C)c2c(C(=O)NCc3c(C)cc(C)[nH]c3=O)cc(-c3ccc(N4CCNCC4)nc3)cc21` [GSK 126], on EZH1, the IC50 is 0.68 µM and the Ki was 0.089 µM. Moreover, in data set [6], the IC50 was 0.028 to 0.061 µM.

Turning to `O=C(O)CCNc1cc(N2CCc3ccccc3CC2)nc(-c2ccccn2)n1` [GSK-J1 (sodium salt)], the IC50 on UTX is 56 µM. Turning to `c1ccc([C@@H]2C[C@H]2NC2CCNCC2)cc1` [GSK-LSD1 (hydrochloride)], the EC50 in data set [7] is under 0.005 µM. Consider `CCC(=O)N1CCOc2c(cc(-c3ccc(OC)c(OC)c3)cc2OC[C@H]2CCCN(C)C2)C1` [I-CBP112 (hydrochloride)], for which, at CBP, the Kd is 0.142 µM.

On to `O=C(NCc1ccccc1)c1c(/N=C/c2c(O)ccc3ccccc23)sc2c1CCCC2` [JGB1741], for which the IC50 was 0.512 µM in data set [8] and 15 µM on SIRT1. Consider `Clc1ccc(N/N=C(\c2ccccc2)c2ccccn2)nc1` [JIB-04], for which the IC50 on JMJD2A was 0.445 µM; on JMJD2B, 0.435 µM. As to `C#CCCCC(=O)Nc1ccc(C(=O)c2ccc(NC(=O)CCCCCCC(=O)NO)cc2)cc1` [SAHA-BPyne], in data set [9], the IC50 was about 3 µM.

For the compound `O=c1[nH]c(=S)[nH]c(-c2ccccc2)c1Cc1c(O)ccc2ccccc12` [SIRT1/2 Inhibitor IV], the IC50 at SIRT5 was over 300 µM. As for `COc1cc2c(NC3CCN(C(C)C)CC3)nc(N3CCC(F)(F)CC3)nc2cc1OCCCN1CCCC1` [UNC0642], the inhibition constant (Ki) in data set [10] is 0.0037 µM. The IC50 is 0.11 µM in [11] and 0.04 µM in data set [12]. In the case of `COc1cc2c(NC3CCN(C4CCCCC4)CC3)nc(N3CCCN(C(C)C)CC3)nc2cc1OCCCN1CCCCC1` [UNC0646], the IC50 is 0.026 µM in [11] and 0.015 µM on GLP. Turning to `CCCc1cc(C)[nH]c(=O)c1CNC(=O)c1cc(-c2ccc(N3CCN(C(C)C)CC3)nc2)cc2c1cnn2C(C)C` [UNC1999], the figures for the IC50 (in data set [13]; at EZH2) were 0.124 µM and 0.002 µM, respectively. Consider `COC(=O)c1ccc(N2CCN(C)CC2)c(NC(=O)c2cccc(OC)c2)c1` [WDR5-0103], for which the Kd on WDR5 is 0.45 µM. Further, the IC50 at MLL core complex was 39 µM.
